Data taken from ChEMBL document CHEMBL1139089, “The evaluation and structure-activity relationships of 2-benzoylaminobenzoic esters and their analogues as anti-inflammatory and anti-platelet aggregation agents” (Bioorg Med Chem Lett, 2007).
Values belong to the compound of their own block, whether it stands above or below them.

Legend:
Format in all cases: functional, cell-based
[1] = Anticoagulant activity assessed as inhibition of thrombin induced rabbit platelet aggregation; conditions: Oryctolagus cuniculus
[2] = Antiinflammatory activity in neutrophil assessed as inhibition of fMLP induced elastase release; conditions: Homo sapiens
[3] = Antiinflammatory activity in neutrophils assessed as inhibition of oxygen radical generation; conditions: Homo sapiens, Neutrophil
[4] = Anticoagulant activity assessed as inhibition of arachidonic acid induced rabbit platelet aggregation; conditions: Oryctolagus cuniculus

Structure (SMILES): O=S(=O)(F)Cc1ccccc1 [PHENYLMETHYLSULFONYLFLUORIDE]
IC50 [2]: 131 µM

Structure (SMILES): c1ccc2c(c1)[I+]c1ccccc1-2 [DIPHENYLENEIODONIUM]
IC50 [3]: 0.86 µM

Structure (SMILES): COC(=O)c1ccc(Cl)cc1NC(=O)c1ccc(C)cc1
IC50 [1]: > 100 µM
IC50 [2]: > 40 µM
IC50 [4]: > 100 µM
IC50 [3]: > 40 µM

Structure (SMILES): COC(=O)c1c(Cl)cccc1NC(=O)c1ccccc1Cl
IC50 [1]: > 100 µM
IC50 [2]: > 40 µM
IC50 [4]: 80.8 µM
IC50 [3]: > 40 µM

Structure (SMILES): COC(=O)c1ccccc1NC(=O)c1ccc(Br)cc1
IC50 [1]: > 100 µM
IC50 [2]: > 40 µM
IC50 [4]: > 100 µM
IC50 [3]: > 40 µM

Structure (SMILES): COC(=O)c1ccc(Cl)cc1NC(=O)c1ccc(Br)cc1
IC50 [1]: > 100 µM
IC50 [2]: > 40 µM
IC50 [4]: > 100 µM
IC50 [3]: > 40 µM

Structure (SMILES): COC(=O)c1ccc(Cl)cc1NC(=O)c1ccccc1Cl
IC50 [1]: > 100 µM
IC50 [2]: > 40 µM
IC50 [4]: 1.1 µM
IC50 [3]: > 40 µM

Structure (SMILES): CC(=O)Oc1ccccc1C(=O)O [ASPIRIN]
IC50 [1]: > 100 µM
IC50 [2]: > 40 µM
IC50 [4]: 152 µM
IC50 [3]: > 40 µM

Structure (SMILES): COc1ccc2c(c1)c(CC(=O)O)c(C)n2C(=O)c1ccc(Cl)cc1 [INDOMETHACIN]
IC50 [1]: > 100 µM
IC50 [2]: > 40 µM
IC50 [4]: 0.14 µM
IC50 [3]: > 40 µM

Structure (SMILES): COC(=O)c1ccc(Cl)cc1NC(=O)c1ccc(Cl)cc1
IC50 [1]: > 100 µM
IC50 [2]: > 40 µM
IC50 [4]: > 100 µM
IC50 [3]: > 40 µM

Structure (SMILES): COC(=O)c1ccccc1NC(=O)c1ccccc1F
IC50 [1]: > 100 µM
IC50 [2]: > 40 µM
IC50 [4]: 10.8 µM
IC50 [3]: 0.65 µM

Structure (SMILES): COC(=O)c1cccc(Cl)c1NC(=O)c1ccccc1F
IC50 [1]: > 100 µM
IC50 [2]: > 40 µM
IC50 [4]: > 100 µM
IC50 [3]: > 40 µM

Structure (SMILES): COC(=O)c1ccccc1NC(=O)c1ccccc1Br
IC50 [1]: > 100 µM
IC50 [2]: > 40 µM
IC50 [4]: 22.9 µM
IC50 [3]: 12 µM

Structure (SMILES): CCCOC(=O)c1ccc(Cl)cc1NC(=O)c1ccccc1Br
IC50 [1]: > 100 µM
IC50 [2]: > 40 µM
IC50 [4]: 3.5 µM
IC50 [3]: > 40 µM

Structure (SMILES): COC(=O)c1ccccc1NC(=O)c1cccc(Br)c1
IC50 [1]: > 100 µM
IC50 [2]: 15.4 µM
IC50 [4]: > 100 µM
IC50 [3]: > 40 µM

Structure (SMILES): COC(=O)c1c(Cl)cccc1NC(=O)c1ccccc1C
IC50 [1]: > 100 µM
IC50 [2]: > 40 µM
IC50 [4]: > 100 µM
IC50 [3]: > 40 µM

Structure (SMILES): COC(=O)c1ccccc1NC(=O)c1ccc(F)cc1
IC50 [1]: > 100 µM
IC50 [2]: > 40 µM
IC50 [4]: > 100 µM
IC50 [3]: > 40 µM

Structure (SMILES): COC(=O)c1ccc(Cl)cc1NC(=O)c1ccc(OC)cc1
IC50 [1]: > 100 µM
IC50 [2]: > 40 µM
IC50 [4]: > 100 µM
IC50 [3]: > 40 µM

Structure (SMILES): CCCOC(=O)c1ccc(Cl)cc1NC(=O)c1ccccc1Cl
IC50 [1]: > 100 µM
IC50 [2]: > 40 µM
IC50 [4]: 0.7 µM
IC50 [3]: > 40 µM

Structure (SMILES): COC(=O)c1cccc(Cl)c1NC(=O)c1ccccc1Br
IC50 [1]: > 100 µM
IC50 [2]: > 40 µM
IC50 [4]: > 100 µM
IC50 [3]: > 40 µM

Structure (SMILES): CCOC(=O)c1ccc(Cl)cc1NC(=O)c1ccccc1Cl
IC50 [1]: > 100 µM
IC50 [2]: > 40 µM
IC50 [4]: 0.8 µM
IC50 [3]: > 40 µM

Other lines, results leading:

IC50 [1]: > 100 µM
IC50 [2]: > 40 µM
IC50 [3]: 24.1 µM
Structure (SMILES): CC(=O)c1ccccc1NC(=O)c1ccccc1F

IC50 [1]: > 100 µM
IC50 [2]: > 40 µM
IC50 [4]: 2.2 µM
IC50 [3]: > 40 µM
Structure (SMILES): CCCOC(=O)c1ccc(Cl)cc1NC(=O)c1ccccc1C

IC50 [1]: > 100 µM
IC50 [2]: > 40 µM
IC50 [4]: 66.6 µM
IC50 [3]: > 40 µM
Structure (SMILES): COC(=O)c1cccc(Cl)c1NC(=O)c1ccccc1OC

IC50 [1]: > 100 µM
IC50 [2]: > 40 µM
IC50 [4]: 23.4 µM
IC50 [3]: > 40 µM
Structure (SMILES): CCCOC(=O)c1ccc(Cl)cc1NC(=O)c1ccccc1OC

IC50 [1]: > 100 µM
IC50 [2]: > 40 µM
IC50 [4]: 78.2 µM
IC50 [3]: > 40 µM
Structure (SMILES): COC(=O)c1c(Cl)cccc1NC(=O)c1ccccc1F

IC50 [1]: > 100 µM
IC50 [2]: > 40 µM
IC50 [4]: > 100 µM
IC50 [3]: > 40 µM
Structure (SMILES): COC(=O)c1cccc(Cl)c1NC(=O)c1ccccc1Cl

IC50 [1]: > 100 µM
IC50 [2]: > 40 µM
IC50 [4]: > 100 µM
IC50 [3]: > 40 µM
Structure (SMILES): COC(=O)c1ccccc1NC(=O)c1cccc(Cl)c1

IC50 [1]: > 100 µM
IC50 [2]: > 40 µM
IC50 [4]: 8 µM
IC50 [3]: 7.41 µM
Structure (SMILES): COC(=O)c1ccccc1NC(=O)c1ccccc1OC

IC50 [1]: > 100 µM
IC50 [2]: > 40 µM
IC50 [4]: > 100 µM
IC50 [3]: 10.6 µM
Structure (SMILES): COC(=O)c1ccccc1NC(=O)c1cccc(F)c1

IC50 [1]: > 100 µM
IC50 [2]: > 40 µM
IC50 [4]: 2.6 µM
IC50 [3]: > 40 µM
Structure (SMILES): COC(=O)c1ccc(Cl)cc1NC(=O)c1ccccc1Br

IC50 [1]: > 100 µM
IC50 [2]: 2.83 µM
IC50 [4]: 4.9 µM
IC50 [3]: > 40 µM
Structure (SMILES): CCOC(=O)c1ccc(Cl)cc1NC(=O)c1ccccc1C

IC50 [1]: > 100 µM
IC50 [2]: > 40 µM
IC50 [4]: 4.3 µM
IC50 [3]: > 40 µM
Structure (SMILES): COC(=O)c1ccc(Cl)cc1NC(=O)c1ccccc1C

IC50 [1]: > 100 µM
IC50 [2]: > 40 µM
IC50 [4]: > 100 µM
IC50 [3]: > 40 µM
Structure (SMILES): COC(=O)c1ccccc1NC(=O)c1ccc(C)cc1

IC50 [1]: > 100 µM
IC50 [2]: > 40 µM
IC50 [4]: 1.6 µM
IC50 [3]: > 40 µM
Structure (SMILES): CCCOC(=O)c1ccc(Cl)cc1NC(=O)c1ccccc1F

IC50 [1]: > 100 µM
IC50 [2]: > 40 µM
IC50 [4]: 11 µM
IC50 [3]: 11 µM
Structure (SMILES): COC(=O)c1ccccc1NC(=O)c1ccccc1Cl

IC50 [1]: > 100 µM
IC50 [2]: > 40 µM
IC50 [4]: 62.3 µM
IC50 [3]: > 40 µM
Structure (SMILES): COC(=O)c1c(Cl)cccc1NC(=O)c1ccccc1OC

IC50 [1]: > 100 µM
IC50 [2]: 14.3 µM
IC50 [3]: 0.17 µM
Structure (SMILES): CCOC(=O)c1ccccc1NC(=O)c1ccccc1F

IC50 [1]: > 100 µM
IC50 [2]: > 40 µM
IC50 [4]: 76.4 µM
IC50 [3]: > 40 µM
Structure (SMILES): COC(=O)c1c(Cl)cccc1NC(=O)c1ccccc1Br

IC50 [1]: > 100 µM
IC50 [2]: > 40 µM
IC50 [4]: 2.2 µM
IC50 [3]: > 40 µM
Structure (SMILES): COC(=O)c1ccc(Cl)cc1NC(=O)c1ccccc1OC

IC50 [1]: > 100 µM
IC50 [2]: > 40 µM
IC50 [4]: 16.6 µM
IC50 [3]: 9.26 µM
Structure (SMILES): COC(=O)c1ccccc1NC(=O)c1ccccc1C

IC50 [1]: > 100 µM
IC50 [2]: > 40 µM
IC50 [4]: > 100 µM
IC50 [3]: > 40 µM
Structure (SMILES): COC(=O)c1ccc(Cl)cc1NC(=O)c1ccc(F)cc1

IC50 [1]: > 100 µM
IC50 [2]: 18.3 µM
IC50 [4]: > 100 µM
IC50 [3]: > 40 µM
Structure (SMILES): COC(=O)c1ccccc1NC(=O)c1cccc(C)c1

IC50 [1]: > 100 µM
IC50 [2]: > 40 µM
IC50 [4]: > 100 µM
IC50 [3]: > 40 µM
Structure (SMILES): COC(=O)c1ccccc1NC(=O)c1cccc(OC)c1

IC50 [1]: > 100 µM
IC50 [2]: > 40 µM
IC50 [4]: > 100 µM
IC50 [3]: > 40 µM
Structure (SMILES): COC(=O)c1ccccc1NC(=O)c1ccc(OC)cc1

IC50 [1]: > 100 µM
IC50 [2]: > 40 µM
IC50 [4]: 3.8 µM
IC50 [3]: > 40 µM
Structure (SMILES): CCOC(=O)c1ccc(Cl)cc1NC(=O)c1ccccc1F

IC50 [1]: > 100 µM
IC50 [2]: > 40 µM
IC50 [4]: 2.2 µM
IC50 [3]: > 40 µM
Structure (SMILES): COC(=O)c1ccc(Cl)cc1NC(=O)c1ccccc1F

IC50 [1]: > 100 µM
IC50 [2]: 4.31 µM
IC50 [4]: 4.9 µM
IC50 [3]: > 40 µM
Structure (SMILES): CCOC(=O)c1ccc(Cl)cc1NC(=O)c1ccccc1OC

IC50 [1]: > 100 µM
IC50 [2]: > 40 µM
IC50 [4]: > 100 µM
IC50 [3]: > 40 µM
Structure (SMILES): COC(=O)c1ccccc1NC(=O)c1ccc(Cl)cc1

IC50 [1]: > 100 µM
IC50 [2]: > 40 µM
IC50 [4]: > 100 µM
IC50 [3]: > 40 µM
Structure (SMILES): COC(=O)c1cccc(Cl)c1NC(=O)c1ccccc1C

IC50 [1]: > 100 µM
IC50 [2]: > 40 µM
IC50 [4]: 3.6 µM
IC50 [3]: > 40 µM
Structure (SMILES): CCOC(=O)c1ccc(Cl)cc1NC(=O)c1ccccc1Br
